Measured values published in publication PMC2375285, “Inhibition of all-TRANS-retinoic acid metabolism by R116010 induces antitumour activity” (British Journal of Cancer, 2002).

Tests used:
CYP2A1 = biological target: T1, CYP2A1 (Rattus norvegicus, UniProt P11711); test: Testosterone 7α-hydroxylase in rat liver microsomes; assay type: biochemical; details: Rat liver microsomes
T1 construct: hydroxylation of testosterone (CYP2C11, CYP2A1, CYP3A, CYP2B1/2) in rat liver microsomes; from tissue; host or cells: rat liver, microsomes
T1 sequence (P11711 1-492): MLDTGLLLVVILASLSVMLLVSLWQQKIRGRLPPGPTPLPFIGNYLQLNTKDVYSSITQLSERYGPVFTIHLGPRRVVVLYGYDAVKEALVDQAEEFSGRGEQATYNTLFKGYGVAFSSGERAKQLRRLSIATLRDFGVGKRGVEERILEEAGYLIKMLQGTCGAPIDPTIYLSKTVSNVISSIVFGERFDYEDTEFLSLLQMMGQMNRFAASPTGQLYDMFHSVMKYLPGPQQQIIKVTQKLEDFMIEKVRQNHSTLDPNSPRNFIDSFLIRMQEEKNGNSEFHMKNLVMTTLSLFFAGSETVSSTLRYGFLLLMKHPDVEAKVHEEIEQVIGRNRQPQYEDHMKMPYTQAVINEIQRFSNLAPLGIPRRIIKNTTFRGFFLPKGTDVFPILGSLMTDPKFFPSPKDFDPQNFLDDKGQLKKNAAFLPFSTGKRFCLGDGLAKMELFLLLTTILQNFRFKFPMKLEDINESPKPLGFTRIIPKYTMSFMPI
Protocol: (§1) The conversion of androstenedione to estrone by aromatase (CYP19) in human placental microsomes, the conversion of 17-hydroxy-20-dihydroprogesterone to testosterone by 17,20-lyase (CYP17) in rat testicular S10 fractions, and the 2α-, 7α-, 6β-, and 16β-hydroxylation of testosterone (CYP2C11, CYP2A1, CYP3A, CYP2B1/2) in rat liver microsomes were carried out as described ([Vanden Bossche et al, 1990]).

T47D cells = test: T47D cell proliferation (MTT assay, 7 days); assay type: cell-based, human
Protocol: T47D cells were seeded in Falcon® 96-well cell culture plates (Life Technologies, Merelbeke, Belgium) at 2500 cells per well in a total volume of 150 μl. Cells were allowed to adhere to plastic for 24 h. Drugs and/or medium were added to a final volume of 200 μl (day 0). Cells were grown under these conditions for 7 days, with renewal of medium and drugs on days 2 and 5. On day 7, medium was renewed and 25 μl MTT-solution was added, and cells were further incubated for 2 h in a cell incubator. The medium was aspirated and 25 μl Sorensen glycine buffer (0.1 M glycine, 0.1 M NaCl; pH 10.5) was added together with 100 μl DMSO to solubilize the blue MTT-formazan product. […] Data are presented as mean±s.d. of three or four independent experiments. Within an experiment, the result of each experimental condition is the mean of six replicate wells. The IC50-values were calculated by non-linear regression analysis using SigmaPlot 4.01 software.

TA3-Ha mammary tumours = test: TA3-Ha mammary carcinoma model; details: for toxicity findings: at toxic dose: RA 5, R116010 5, liarozole fumarate 20 mg kg^−1; for therapeutic window: maximum tolerated dose versus lowest active dose, TA3-Ha model; for lowest active dose inhibiting TA3-Ha tumour growth: day 1 until day 21, tumour weight
Protocol: (§2) Cells (1.5×10^6) were injected intraperitoneally in syngeneic A/J mice. […] Each group consisted of 10 animals for experiments with R116010 and of six animals for experiments with RA. All treatments were performed by oral gavage. […] The control groups were given the vehicle 20% 4-OH-β-cyclodextrine in sterile saline. Mice were daily examined for adverse drug effects. At the end of the experiments, subcutaneous tumours were excised 24 h after the last treatment and weighed to validate the antitumoural effects of the treatment.
(§3) Data are represented as box plots showing median group value, 25/75th percentile, 10/90th percentile and outliers. Groups were statistically compared to the vehicle-treated groups using the Mann–Whitney U-test. Significance was defined at the level of P<0.05.

CYP2B1/2 = test: Testosterone 16β-hydroxylase in rat liver microsomes; assay type: biochemical; details: Rat liver microsomes
Protocol: as §1

[1] = test system: RA metabolism in intact T47D cells; test: Microcolumn assay for RA metabolism in intact T47D cells; assay type: cell-based, human; details: intact T47D cells pretreated 16 h with 1 μM RA; 0.1 μM [3H]RA, 90 min; read-out: IC50 inhibition of RA metabolism
Protocol: RA metabolism was quantitatively determined using the microcolumn assay as described previously ([Krekels et al, 1997]). […] Cells were then washed twice with culture medium, harvested and resuspended at 4×10^6 cells ml^−1. An aliquot of this cell suspension (450 μl) was incubated for 90 min in the presence of 0.1 μM [11, 12-^3H(N)]RA, after which 2 ml acetonitrile was added. After centrifugation for 10 min at 780 g, the resulting deproteinized supernatant was acidified with 2.5 ml of 40 mM acetic acid and applied to a 3 ml C18 Bond Elut LRC column (Varian, Harbor City, CA, USA; pretreated with 4 ml distilled water) under a vacuum of 127 mmHg using VAC ELUT SPS-24 and the effluent was collected. The column was eluted with 1 ml 40% acetonitrile and the effluent was collected in the same vial. Radioactivity in the collected effluent, containing the polar metabolites, was determined in a Packard Tri-carb 4530 liquid scintillation analyzer. Optiphase ‘Hi Safe II’ (Wallac, Milton Keynes, UK) was used as a scintillator. Data are presented as mean±s.d. of three or four independent experiments. The IC50-values were calculated by non-linear regression analysis using SigmaPlot 4.01 software.

CYP3A = details: microsomes
Protocol: as §1

CYP2C11 = biological target: T2, CYP2C11 (Rattus norvegicus, UniProt P08683); test: Testosterone 2α-hydroxylase in rat liver microsomes; assay type: biochemical; details: Rat liver microsomes
T2 construct: hydroxylation of testosterone (CYP2C11, CYP2A1, CYP3A, CYP2B1/2) in rat liver microsomes; from tissue; host or cells: rat liver, microsomes
T2 sequence (P08683 1-500): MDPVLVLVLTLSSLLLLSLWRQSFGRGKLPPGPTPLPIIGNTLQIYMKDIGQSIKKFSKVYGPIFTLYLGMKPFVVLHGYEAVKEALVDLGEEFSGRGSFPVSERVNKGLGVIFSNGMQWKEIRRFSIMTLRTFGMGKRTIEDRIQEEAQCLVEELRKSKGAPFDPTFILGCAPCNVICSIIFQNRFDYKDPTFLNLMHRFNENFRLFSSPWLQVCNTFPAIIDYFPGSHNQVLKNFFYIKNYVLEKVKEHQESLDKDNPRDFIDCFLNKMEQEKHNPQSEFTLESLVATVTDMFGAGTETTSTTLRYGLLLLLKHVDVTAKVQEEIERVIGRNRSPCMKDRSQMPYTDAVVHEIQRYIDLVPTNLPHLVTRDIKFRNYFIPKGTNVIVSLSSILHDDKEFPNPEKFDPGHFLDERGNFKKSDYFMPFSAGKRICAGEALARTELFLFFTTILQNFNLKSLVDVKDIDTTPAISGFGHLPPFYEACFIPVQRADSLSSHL
Protocol: as §1

17,20-lyase (CYP17) = biological target: T3, 17,20-lyase (CYP17) (Rattus norvegicus, UniProt P11715); test: 17,20-lyase in rat testicular S10 fraction; assay type: biochemical
T3 construct: 17,20-lyase (CYP17) in rat testicular S10 fractions; from tissue; host or cells: rat testis, S10 fraction
T3 sequence (P11715 1-507): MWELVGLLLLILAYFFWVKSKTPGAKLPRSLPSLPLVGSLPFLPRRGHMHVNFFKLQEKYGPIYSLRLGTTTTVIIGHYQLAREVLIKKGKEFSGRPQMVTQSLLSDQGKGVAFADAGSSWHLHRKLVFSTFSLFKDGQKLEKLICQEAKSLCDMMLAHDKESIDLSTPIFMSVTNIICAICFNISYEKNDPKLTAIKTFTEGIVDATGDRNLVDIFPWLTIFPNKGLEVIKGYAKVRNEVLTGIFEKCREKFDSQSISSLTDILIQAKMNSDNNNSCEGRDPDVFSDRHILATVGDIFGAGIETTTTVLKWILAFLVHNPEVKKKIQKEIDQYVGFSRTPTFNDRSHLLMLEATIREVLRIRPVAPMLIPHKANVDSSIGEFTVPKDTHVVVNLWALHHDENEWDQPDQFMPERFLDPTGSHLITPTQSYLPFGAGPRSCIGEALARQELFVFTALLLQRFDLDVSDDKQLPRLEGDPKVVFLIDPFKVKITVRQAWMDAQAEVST
Protocol: Metabolism of RA by CYP26A1 was measured in microsomes of T47D human breast cancer cells that were pretreated for 16 h with 1 μM RA to induce RA metabolism. Microsomes were prepared exactly as described by [Han and Choi (1996)], and RA metabolism was measured as described by [Van Wauwe et al (1994)]. The conversion of androstenedione to estrone by aromatase (CYP19) in human placental microsomes, the conversion of 17-hydroxy-20-dihydroprogesterone to testosterone by 17,20-lyase (CYP17) in rat testicular S10 fractions, and the 2α-, 7α-, 6β-, and 16β-hydroxylation of testosterone (CYP2C11, CYP2A1, CYP3A, CYP2B1/2) in rat liver microsomes were carried out as described ([Vanden Bossche et al, 1990]).

in vivo = details: mouse, po
Protocol: as §2, §3

SMILES | IC50 (CYP2A1) [nM] | decrease of T47D cell proliferation by itself (T47D cells; 10 μM, compound alone) | enhancement of the antiproliferative activity of RA (T47D cells; liarozole-fumarate tested up to 10 μM, T47D cells) | toxicity findings (TA3-Ha mammary tumours) | therapeutic window (TA3-Ha mammary tumours) | lowest active dose inhibiting TA3-Ha tumour growth (TA3-Ha mammary tumours; oral, twice daily) [mg/kg] | IC50 (CYP2B1/2) [nM] | IC50 [1] [nM] | IC50 (CYP3A) [nM] | IC50 (CYP2C11) [nM] | IC50 (17,20-lyase (CYP17)) [nM] | IC50 (T47D cells; Homo sapiens, T47D, 168 h, read-out: IC50 T47D cell proliferation) [nM] | loss of body weight (TA3-Ha mammary tumours; RA 5 mg kg^−1, mice) [%] | dose at which toxicity was observed (TA3-Ha mammary tumours; mice, oral, twice daily, toxicity related to hypervitaminosis A) [mg/kg] | MTD (in vivo) [mg/kg]
Clc1cccc(C(c2ccc3[nH]cnc3c2)n2ccnc2)c1.Clc1cccc(C(c2ccc3[nH]cnc3c2)n2ccnc2)c1.O=C(O)/C=C/C(=O)O.O=C(O)/C=C/C(=O)O.O=C(O)/C=C/C(=O)O (racemic) [liarozole-fumarate, ±-5-[(3-chlorophenyl)(1H-imidazole-1-yl)methyl]-1H-benzimidazole (E)-2-butenedioate (2:3), reference compound] | > 10000 | approximately 25% | unable to enhance | hair loss and bone fractures | no therapeutic window | 10 | 500 | 1400 | 400 | 2900 | 110 | – | – | – | –
CC1=C(/C=C/C(C)=C/C=C/C(C)=C/C(=O)O)C(C)(C)CCC1 [RA, All-trans-retinoic acid] | – | – | – | hair loss, and impaired movement due to bone fractures | does not show a real therapeutic window | 2.5 | – | – | – | – | – | 2 ± 0.5 | 5 | 5 | 5
